Tested on: participants with narcolepsy or OSA
Test: 1-year OLE study: blood pressure, parent study baseline to OLE week 40
Assay type: in vivo, human
Description: A 1-year open-label extension (OLE) study was performed with 374 participants to examined whether clinically significant weight loss (≥5%) in this population had favorable effects on biomarkers of cardiovascular risk compared to no such weight loss. The study measured changes in weight and BP (parent study baseline to OLE week 40) and clinical laboratory assessments (OLE baseline to week 40) in participants with narcolepsy (n=124) or OSA (n=250) who received solriamfetol at doses of 75, 150, or 300 mg/d.
We evaluated changes in weight and BP (parent study baseline to OLE week 40) and clinical laboratory assessments (OLE baseline to week 40) in participants with narcolepsy (n=124) or OSA (n=250) from the OLE study.

[1] = Weight loss <5% at Week 40, 75 mg/d
[2] = Weight loss <5% at Week 40, 150 mg/d
[3] = Weight loss <5% at Week 40, 300 mg/d
[4] = Weight loss <5% at Week 40, all doses
[5] = Weight loss <5% at Week 40, all doses, listed as Solri
[6] = Weight loss <5% at Week 40, all doses, listed as solriamfetol
[7] = Weight loss ≥5% at Week 40, 75 mg/d
[8] = Weight loss ≥5% at Week 40, 150 mg/d
[9] = Weight loss ≥5% at Week 40, 300 mg/d
[10] = Weight loss ≥5% at Week 40, all doses
[11] = Weight loss ≥5% at Week 40, all doses, listed as Solri
[12] = Weight loss ≥5% at Week 40, all doses, listed as solriamfetol

## NC(=O)OC[C@H](N)Cc1ccccc1 [Solriamfetol, (R)-2-amino-3-phenylpropyl carbamate]
[1]
  DBP Change - Wk 40, Mean (SD): 0.2 (9.5) mmHg
  DBP Change - Wk 40, Median: 0.0 mmHg
  DBP maximum changes from baseline to week 40: Decrease ≥10%: 3 (14.3) n (%)
  DBP maximum changes from baseline to week 40: Decrease ≥20%: 0 n (%)
  DBP maximum changes from baseline to week 40: Decrease ≥30%: 0 n (%)
  DBP maximum changes from baseline to week 40: Increase ≥10%: 4 (19.0) n (%)
  DBP maximum changes from baseline to week 40: Increase ≥20%: 0 n (%)
  DBP maximum changes from baseline to week 40: Increase ≥30%: 0 n (%)
  SBP Change - Wk 40, Mean (SD): −3.0 (12.3) mmHg
  SBP Change - Wk 40, Median: 0.50 mmHg
  SBP maximum changes from baseline to week 40: Decrease ≥10%: 6 (28.6) n (%)
  SBP maximum changes from baseline to week 40: Decrease ≥20%: 0 n (%)
  SBP maximum changes from baseline to week 40: Decrease ≥30%: 0 n (%)
  SBP maximum changes from baseline to week 40: Increase ≥10%: 5 (23.8) n (%)
  SBP maximum changes from baseline to week 40: Increase ≥20%: 0 n (%)
  SBP maximum changes from baseline to week 40: Increase ≥30%: 0 n (%)
[2]
  DBP Change - Wk 40, Mean (SD): 2.3 (7.9) mmHg
  DBP Change - Wk 40, Median: 2.3 mmHg
  DBP maximum changes from baseline to week 40: Decrease ≥10%: 4 (3.8) n (%)
  DBP maximum changes from baseline to week 40: Decrease ≥20%: 1 (1.0) n (%)
  DBP maximum changes from baseline to week 40: Decrease ≥30%: 0 n (%)
  DBP maximum changes from baseline to week 40: Increase ≥10%: 16 (15.2) n (%)
  DBP maximum changes from baseline to week 40: Increase ≥20%: 3 (2.9) n (%)
  DBP maximum changes from baseline to week 40: Increase ≥30%: 0 n (%)
  SBP Change - Wk 40, Mean (SD): 2.30 (12.1) mmHg
  SBP Change - Wk 40, Median: 2.00 mmHg
  SBP maximum changes from baseline to week 40: Decrease ≥10%: 15 (14.3) n (%)
  SBP maximum changes from baseline to week 40: Decrease ≥20%: 4 (3.8) n (%)
  SBP maximum changes from baseline to week 40: Decrease ≥30%: 0 n (%)
  SBP maximum changes from baseline to week 40: Increase ≥10%: 26 (24.8) n (%)
  SBP maximum changes from baseline to week 40: Increase ≥20%: 7 (6.7) n (%)
  SBP maximum changes from baseline to week 40: Increase ≥30%: 2 (1.9) n (%)
[3]
  DBP Change - Wk 40, Mean (SD): 0.6 (9.1) mmHg
  DBP Change - Wk 40, Median: 1.5 mmHg
  DBP maximum changes from baseline to week 40: Decrease ≥10%: 20 (13.2) n (%)
  DBP maximum changes from baseline to week 40: Decrease ≥20%: 5 (3.3) n (%)
  DBP maximum changes from baseline to week 40: Decrease ≥30%: 0 n (%)
  DBP maximum changes from baseline to week 40: Increase ≥10%: 21 (13.8) n (%)
  DBP maximum changes from baseline to week 40: Increase ≥20%: 2 (1.3) n (%)
  DBP maximum changes from baseline to week 40: Increase ≥30%: 0 n (%)
  SBP Change - Wk 40, Mean (SD): −0.37 (12.7) mmHg
  SBP Change - Wk 40, Median: 0.17 mmHg
  SBP maximum changes from baseline to week 40: Decrease ≥10%: 36 (23.7) n (%)
  SBP maximum changes from baseline to week 40: Decrease ≥20%: 10 (6.6) n (%)
  SBP maximum changes from baseline to week 40: Decrease ≥30%: 2 (1.3) n (%)
  SBP maximum changes from baseline to week 40: Increase ≥10%: 33 (21.7) n (%)
  SBP maximum changes from baseline to week 40: Increase ≥20%: 8 (5.3) n (%)
  SBP maximum changes from baseline to week 40: Increase ≥30%: 0 n (%)
[4]
  DBP Change - Wk 40, Median: 1.4 mmHg
  DBP maximum changes from baseline to week 40: Decrease ≥10%: 27 (9.7) n (%)
  DBP maximum changes from baseline to week 40: Decrease ≥20%: 6 (2.2) n (%)
  DBP maximum changes from baseline to week 40: Decrease ≥30%: 0 n (%)
  DBP maximum changes from baseline to week 40: Increase ≥10%: 41 (14.7) n (%)
  DBP maximum changes from baseline to week 40: Increase ≥20%: 5 (1.8) n (%)
  DBP maximum changes from baseline to week 40: Increase ≥30%: 0 n (%)
  SBP Change - Wk 40, Median: 0.50 mmHg
  SBP maximum changes from baseline to week 40: Decrease ≥10%: 57 (20.5) n (%)
  SBP maximum changes from baseline to week 40: Decrease ≥20%: 14 (5.0) n (%)
  SBP maximum changes from baseline to week 40: Decrease ≥30%: 2 (0.7) n (%)
  SBP maximum changes from baseline to week 40: Increase ≥10%: 64 (23.0) n (%)
  SBP maximum changes from baseline to week 40: Increase ≥20%: 15 (5.4) n (%)
  SBP maximum changes from baseline to week 40: Increase ≥30%: 2 (0.7) n (%)
[5]
  DBP Change - Wk 40, Mean (SD): 1.2 (8.7) mmHg
  SBP Change - Wk 40, Mean (SD): 0.65 (12.5) mmHg
[6]
  DBP Change - Wk 40, Mean (SD): 1.2±8.7 mmHg
  SBP Change - Wk 40, Mean (SD): 0.65±12.5 mmHg
[7]
  DBP Change - Wk 40, Mean (SD): −3.8 mmHg
  DBP Change - Wk 40, Median: −3.8 mmHg
  DBP maximum changes from baseline to week 40: Decrease ≥10%: 0 n (%)
  DBP maximum changes from baseline to week 40: Decrease ≥20%: 0 n (%)
  DBP maximum changes from baseline to week 40: Decrease ≥30%: 0 n (%)
  DBP maximum changes from baseline to week 40: Increase ≥10%: 0 n (%)
  DBP maximum changes from baseline to week 40: Increase ≥20%: 0 n (%)
  DBP maximum changes from baseline to week 40: Increase ≥30%: 0 n (%)
  SBP Change - Wk 40, Mean (SD): −3.3 mmHg
  SBP Change - Wk 40, Median: −3.3 mmHg
  SBP maximum changes from baseline to week 40: Decrease ≥10%: 0 n (%)
  SBP maximum changes from baseline to week 40: Decrease ≥20%: 0 n (%)
  SBP maximum changes from baseline to week 40: Decrease ≥30%: 0 n (%)
  SBP maximum changes from baseline to week 40: Increase ≥10%: 0 n (%)
  SBP maximum changes from baseline to week 40: Increase ≥20%: 0 n (%)
  SBP maximum changes from baseline to week 40: Increase ≥30%: 0 n (%)
[8]
  DBP Change - Wk 40, Mean (SD): −1.9 (9.9) mmHg
  DBP Change - Wk 40, Median: 0.5 mmHg
  DBP maximum changes from baseline to week 40: Decrease ≥10%: 5 (22.7) n (%)
  DBP maximum changes from baseline to week 40: Decrease ≥20%: 1 (4.5) n (%)
  DBP maximum changes from baseline to week 40: Decrease ≥30%: 0 n (%)
  DBP maximum changes from baseline to week 40: Increase ≥10%: 3 (13.6) n (%)
  DBP maximum changes from baseline to week 40: Increase ≥20%: 0 n (%)
  DBP maximum changes from baseline to week 40: Increase ≥30%: 0 n (%)
  SBP Change - Wk 40, Mean (SD): −4.5 (13.8) mmHg
  SBP Change - Wk 40, Median: −2.8 mmHg
  SBP maximum changes from baseline to week 40: Decrease ≥10%: 7 (31.8) n (%)
  SBP maximum changes from baseline to week 40: Decrease ≥20%: 1 (4.5) n (%)
  SBP maximum changes from baseline to week 40: Decrease ≥30%: 1 (4.5) n (%)
  SBP maximum changes from baseline to week 40: Increase ≥10%: 3 (13.6) n (%)
  SBP maximum changes from baseline to week 40: Increase ≥20%: 1 (4.5) n (%)
  SBP maximum changes from baseline to week 40: Increase ≥30%: 0 n (%)
[9]
  DBP Change - Wk 40, Mean (SD): −0.8 (8.9) mmHg
  DBP Change - Wk 40, Median: −0.3 mmHg
  DBP maximum changes from baseline to week 40: Decrease ≥10%: 11 (15.1) n (%)
  DBP maximum changes from baseline to week 40: Decrease ≥20%: 3 (4.1) n (%)
  DBP maximum changes from baseline to week 40: Decrease ≥30%: 0 n (%)
  DBP maximum changes from baseline to week 40: Increase ≥10%: 8 (11.0) n (%)
  DBP maximum changes from baseline to week 40: Increase ≥20%: 0 n (%)
  DBP maximum changes from baseline to week 40: Increase ≥30%: 0 n (%)
  SBP Change - Wk 40, Mean (SD): −2.0 (10.8) mmHg
  SBP Change - Wk 40, Median: −1.8 mmHg
  SBP maximum changes from baseline to week 40: Decrease ≥10%: 20 (27.4) n (%)
  SBP maximum changes from baseline to week 40: Decrease ≥20%: 2 (2.7) n (%)
  SBP maximum changes from baseline to week 40: Decrease ≥30%: 0 n (%)
  SBP maximum changes from baseline to week 40: Increase ≥10%: 13 (17.8) n (%)
  SBP maximum changes from baseline to week 40: Increase ≥20%: 1 (1.4) n (%)
  SBP maximum changes from baseline to week 40: Increase ≥30%: 0 n (%)
[10]
  DBP Change - Wk 40, Median: −0.3 mmHg
  DBP maximum changes from baseline to week 40: Decrease ≥10%: 16 (16.7) n (%)
  DBP maximum changes from baseline to week 40: Decrease ≥20%: 4 (4.2) n (%)
  DBP maximum changes from baseline to week 40: Decrease ≥30%: 0 n (%)
  DBP maximum changes from baseline to week 40: Increase ≥10%: 11 (11.5) n (%)
  DBP maximum changes from baseline to week 40: Increase ≥20%: 0 n (%)
  DBP maximum changes from baseline to week 40: Increase ≥30%: 0 n (%)
  SBP Change - Wk 40, Median: −2.8 mmHg
  SBP maximum changes from baseline to week 40: Decrease ≥10%: 27 (28.1) n (%)
  SBP maximum changes from baseline to week 40: Decrease ≥20%: 3 (3.1) n (%)
  SBP maximum changes from baseline to week 40: Decrease ≥30%: 1 (1.0) n (%)
  SBP maximum changes from baseline to week 40: Increase ≥10%: 16 (16.7) n (%)
  SBP maximum changes from baseline to week 40: Increase ≥20%: 2 (2.1) n (%)
  SBP maximum changes from baseline to week 40: Increase ≥30%: 0 n (%)
[11]
  DBP Change - Wk 40, Mean (SD): −1.0 (9.0) mmHg
  SBP Change - Wk 40, Mean (SD): −2.6 (11.4) mmHg
[12]
  DBP Change - Wk 40, Mean (SD): −1.0±9.0 mmHg
  SBP Change - Wk 40, Mean (SD): −2.6±11.4 mmHg

Reference: patent publication US20240358668A1, “METHODS AND CO[…] AM[…] CARD[…] USING (R)-2-AMINO-3-PH[…]” (AXSOME THERAPEUTICS, INC., priority 2021, published 2024)
